Reference: paper PMC12040169 (PLOS Biology, 2025)

Assay: in vitro
Details: human, hela cells, % viability

Point of comparison: `O=C(Nc1ccc2[nH]ccc2c1)c1c(F)cccc1F` [CBK144711], viability at 28.5 h, 10 µM 95.9%. Against it:
- Cc1cc(C)nc(NC(=O)OCCc2ccncc2)c1 [CBK138233] — lower, 93.9%
- Cc1cc(COC(=O)Nc2cccnc2)cc(C)n1 [CBK138236] — lower, 83.6%
- NC(=O)CN1CCC(Cc2ccccc2)CC1 [CBK138319] — higher, 109%
- NC(=O)CCN1CCc2ccccc2C1 [CBK138325] — lower, 88.3%
- O=C(CN1CCCc2ccccc21)c1ccsc1 [CBK138333] — lower, 91.5%
- COc1ccc(Cl)cc1N1CCN(CCCn2c(=O)[nH]c3ccccc32)CC1 [CBK138338] — lower, 95.7%
- COc1ccc(Cl)cc1N1CCN(CCO)CC1 [CBK138339] — lower, 88.7%
- CC(C)(C)OC(=O)N1CCCN(c2ccc(S(=O)(=O)c3ccccc3)c([N+](=O)[O-])c2)CC1 [CBK138502] — higher, 99.2%
- O=C(c1ccc(-c2cncc(-c3ccc(Cl)s3)n2)cc1)N1CCOCC1 [CBK138517] — lower, 92.2%
- CC(C)(C)OC(=O)n1cccc1-c1cncc(-c2ccc(C(=O)N3CCOCC3)cc2)n1 [CBK138520] — higher, 100%
- O=C(Nc1cccc2ccccc12)C1CCCN1S(=O)(=O)c1ccc(F)cc1 (stereo not drawn) [CBK138924] — higher, 97.8%
- O=C(Nc1cccc2ccccc12)C1CCCN1S(=O)(=O)c1ccc(Cl)cc1 (stereo not drawn) [CBK138930] — lower, 92.9%
- COCCn1c(SCCC(=O)O)nc2c1c(=O)[nH]c(=O)n2C [CBK139751] — lower, 82%
- Cc1ccc(CNc2nc3c(c(=O)[nH]c(=O)n3C)n2CC(O)COC(C)C)cc1 (stereo not drawn) [CBK139849] — lower, 87.3%
- COCCSc1nc2c(c(=O)[nH]c(=O)n2C)n1CCCc1ccccc1 [CBK140504] — lower, 90.9%
- CN(C)c1nc2c(c(=O)[nH]c(=O)n2C)n1Cc1cccc2ccccc12 [CBK140560] — lower, 90.1%
- CN(C)Cc1nc2c([nH]1)c(=O)n(C)c(=O)n2C [CBK140662] — higher, 99.8%
- CC(C)OCC(O)Cn1c(NC2CCCCC2)nc2c1c(=O)[nH]c(=O)n2C (stereo not drawn) [CBK140893] — higher, 107%
- COc1ccc(OC)c(-n2c(C)cn3c4c(=O)[nH]c(=O)n(C)c4nc23)c1 [CBK141314] — lower, 59.5%
- COc1cccc(C(c2nnnn2C(C)(C)C)N2CCN(c3cccc(Cl)c3)CC2)c1 (stereo not drawn) [CBK141669] — higher, 112%
- COc1ccccc1OCCSc1nnnn1C1CCCCC1 [CBK141884] — higher, 96.6%
- COc1cc(C(c2nnnn2C2CCCCC2)N2CCN(C)CC2)cc(OC)c1OC (stereo not drawn) [CBK142338C] — higher, 98.3%
- CC(C)(C)OC(=O)N1CCN(S(=O)(=O)c2ccc(Br)cc2)CC1 [CBK143623] — lower, 91.8%
- O=S(=O)(c1ccccc1)n1c(CO)cc2c(C(F)(F)F)cc(CN3CCNCC3)cc21 [CBK143799] — higher, 97.7%
- O=C(NC1CCCC1)c1ccncc1 [CBK143916] — higher, 117%
- CCNC(=O)N1CC2(CCN(CC3COc4ccccc4O3)CC2)c2ccccc21 (stereo not drawn) [CBK143944] — higher, 102%
- CCNC(=O)N1CC2(CCN(CCn3cccc3)CC2)c2ccccc21 [CBK143945] — lower, 93%
- O=C(CO)N1CC2(CCN(CCn3cccc3)CC2)c2ccccc21 [CBK143953] — lower, 86.9%
- OCCN1CC2(CCN(CC3CCCO3)CC2)c2ccccc21 (stereo not drawn) [CBK143959] — lower, 90.8%
- O=C1NC(=O)C(CCCCN2CCCc3ccccc32)N1 (stereo not drawn) [CBK143965] — higher, 98.3%
- CCCCN1CCN(S(=O)(=O)c2ccc(Br)cc2)CC1 [CBK144055] — higher, 99.1%
- CS(=O)(=O)c1ccc(CN2C(=O)CC3(CCN(Cc4ccccc4)CC3)C2=O)cc1 [CBK144065T] — higher, 108%
- Cc1onc(-c2ccccc2)c1CNC(=O)c1ccc(OC(F)(F)F)cc1 [CBK144080] — higher, 97.9%
- Cc1onc(-c2ccccc2)c1CNC(=O)/C=C/c1ccc2c(c1)OCO2 [CBK144085] — lower, 95%
- Cc1onc(-c2ccccc2)c1CNC(=O)c1cscn1 [CBK144089] — higher, 97.1%
- Cc1onc(-c2ccccc2)c1CNC(=O)c1cccnc1 [CBK144100] — higher, 111%
- CN1CCC[C@H]1C(=O)Nc1nc2c(s1)C(=O)CC(C)(C)C2 [CBK144101] — higher, 98.8%
- CC1(C)CC(=O)c2sc(NC(=O)c3ccc(OC(F)(F)F)cc3)nc2C1 [CBK144102] — higher, 109%
- CC1(C)CC(=O)c2sc(NC(=O)Cc3ccc(Cl)c(Cl)c3)nc2C1 [CBK144103] — lower, 93.7%
- CC1(C)CC(=O)c2sc(NC(=O)c3ccc4ncccc4c3)nc2C1 [CBK144105] — lower, 92.2%
- CC1CCN(Cc2ccc(-c3nnn(CC(=O)NCc4ccc(S(N)(=O)=O)cc4)n3)cc2)CC1 [CBK144141C] — lower, 93.3%
- COc1cccc(CNC(=O)Cn2nnc(-c3ccc(CN4CCC(C)CC4)cc3)n2)c1OC [CBK144161C] — lower, 94.1%
- COc1cc(CNC(=O)Cn2nnc(-c3ccc(CN4CCC(C)CC4)cc3)n2)cc(OC)c1OC [CBK144170C] — higher, 96.5%
- CC1CCN(Cc2ccc(-c3nnn(CC(=O)NCc4ccc(Cl)cc4Cl)n3)cc2)CC1 [CBK144180C] — higher, 96.5%
- O=C(c1ccco1)N1CCN(C(=O)C(c2ccccc2)c2ccccc2)CC1 [CBK144462] — lower, 88.9%
- COc1ccccc1OCC(=O)N1CCN(C(=O)c2ccco2)CC1 [CBK144466] — lower, 86.8%
- O=C(c1cc[nH]c1)N1CCN(C(=O)c2ccco2)CC1 [CBK144467] — lower, 90%
- Cc1ccc(S(=O)(=O)CC(=O)N2CCN(C(=O)c3ccco3)CC2)cc1 [CBK144469] — lower, 87.1%
- COc1cc(C(=O)N2CCN(C(=O)c3ccco3)CC2)cc(OC)c1OC [CBK144476] — higher, 113%
- O=C(c1cncnc1)N1CCN(C(=O)c2ccco2)CC1 [CBK144477] — higher, 104%
- O=C(CN1CCOCC1)N1CCN(C(=O)c2ccco2)CC1 [CBK144478] — higher, 99.2%
- O=C(c1ccco1)N1CCN(C(=O)c2c(F)cccc2F)CC1 [CBK144479] — lower, 86.3%
- O=C(c1ccc2c(c1)OCCO2)N1CCN(C(=O)c2ccco2)CC1 [CBK144480] — higher, 101%
- O=C(COc1cccnc1)N1CCN(C(=O)c2ccco2)CC1 [CBK144482] — higher, 96.7%
- N#Cc1cccc(C(=O)N2CCN(c3ncccn3)CC2)c1 [CBK144498] — lower, 82.2%
- O=C(COc1ccc(F)cc1)N1CCN(c2ncccn2)CC1 [CBK144499] — lower, 94.1%
- O=C(c1ccc2ncccc2c1)N1CCN(c2ncccn2)CC1 [CBK144503] — lower, 87.9%
- O=C(C(c1ccccc1)c1ccccc1)N1CCN(c2ncccn2)CC1 [CBK144504] — lower, 89.4%
- O=C(c1cscn1)N1CCN(c2ncccn2)CC1 [CBK144506] — lower, 87.9%
- CSCCC(=O)N1CCN(c2ncccn2)CC1 [CBK144509] — lower, 90.3%
- CN1CCC(C(=O)N2CCN(c3ncccn3)CC2)CC1 [CBK144511] — higher, 102%
- O=C(c1cncnc1)N1CCN(c2ncccn2)CC1 [CBK144515] — lower, 88%
- O=C(c1cccnc1)N1CCN(c2ncccn2)CC1 [CBK144516] — lower, 95.4%
- O=C(c1c(F)cccc1F)N1CCN(c2ncccn2)CC1 [CBK144517] — lower, 89.3%
- O=C(c1ccc2c(c1)OCCO2)N1CCN(c2ncccn2)CC1 [CBK144519] — lower, 89.5%
- O=C(COc1cccnc1)N1CCN(c2ncccn2)CC1 [CBK144521] — lower, 86.5%
- O=C(Cc1c[nH]cn1)N1CCN(c2ncccn2)CC1 [CBK144527] — higher, 105%
- CN1CCC[C@H]1C(=O)N1CCN(c2ncccn2)CC1 [CBK144528] — lower, 93.4%
- O=C(CC1CCCCC1)N1CCN(c2ncccn2)CC1 [CBK144529] — higher, 102%
- CC(C)(N)CC(=O)N1CCN(c2ncccn2)CC1 [CBK144532] — lower, 91.3%
- Cc1ccc(CNC(=O)Cn2nnc(-c3ccc(CN4CC(C)OC(C)C4)cc3)n2)cc1 (stereo not drawn) [CBK144554C] — lower, 64.2%
- CSc1ccccc1CNC(=O)Cn1nnc(-c2ccc(CN3CCC(C)CC3)cc2)n1 [CBK144573C] — lower, 93.2%
- CC1CCN(Cc2ccc(-c3nnn(CC(=O)NCc4ccc(NS(C)(=O)=O)cc4)n3)cc2)CC1 [CBK144588C] — lower, 90.3%
- CCNC(=O)N1CC2(CCN(C/C=C/c3ccccc3)CC2)c2ccccc21 [CBK144596T] — higher, 97.6%
- CCNC(=O)N1CC2(CCN(CCOc3ccc(OC)cc3)CC2)c2ccccc21 [CBK144600T] — higher, 98.4%
- CC(C)C(=O)N1CC2(CCN(Cc3cc(=O)[nH]c(=O)[nH]3)CC2)c2ccccc21 [CBK144602T] — higher, 107%
- Cc1cc(NCCc2ccc(=O)[nH]c2)nc(-c2cc(F)c(F)cc2F)n1 [CBK144636C] — higher, 99.3%
- O=C(OCc1ccccc1)N1CCC(C2OCc3cc(-c4cccc5ncccc45)ccc3O2)CC1 (stereo not drawn) [CBK144644] — lower, 94.8%
- CS(=O)(=O)N1CCC(Oc2nccnc2OCc2ccc(Cl)c(Cl)c2)CC1 [CBK144910] — lower, 90.5%
- CSc1nnc(NS(=O)(=O)c2ccccc2C)s1 [CBK144918] — higher, 97.4%
- COCCSc1nnc(NS(=O)(=O)c2ccc(F)cc2)s1 [CBK144919] — lower, 87.1%
- CC(C)(C)OC(=O)N1CCN(Cc2ccn(Cc3ccc(S(C)(=O)=O)cc3)c2)CC1 [CBK144936] — higher, 119%
- CCCC1CCN(Cc2ccn(Cc3ccc(S(C)(=O)=O)cc3)c2)CC1 [CBK144937] — lower, 94.4%
- O=C(Nc1cccnc1)N1CCN(c2ccccc2)CC1 [CBK145043] — lower, 89.5%
- CN(C)CCN(Cc1ccccc1)C(=O)Nc1cccnc1 [CBK145047] — lower, 95%
- CCN(Cc1ccncc1)C(=O)Nc1cccnc1 [CBK145053] — higher, 111%
- CCN(Cc1ccncc1)C(=O)NCc1cccnc1 [CBK145054] — lower, 94.6%
- CCN(Cc1ccncc1)C(=O)NCc1ccc2c(c1)OCO2 [CBK145056] — higher, 102%
- COc1ccc(CCOc2cnc(-c3ccccc3)c(N)n2)cc1 [CBK145065] — higher, 98.8%
